Data as given in ChEMBL document CHEMBL3507680, “University of Dundee, Gates Library screen for HepG2 cell viability”.

Assay: Human HepG2 cell viability assay in 384 well format
Type: toxicity, cell-based
Design: dose 125 nL, time 70.5 hour; cytotoxicity at 70.5 h: concentration not given beside the values
Details: HepG2 cells, read-out: Inhibition

Row | Structure (SMILES) | cytotoxicity at 70.5 h [%]
1 | CN(C)C(=O)Cn1c2c(ccc1=O)CC(NCc1cccnc1)CC2 (stereo unspecified) | -10.4
2 | O=C(C1CCCO1)N1CCCn2c(nnc2Cn2cccc2)C1 (stereo unspecified) | -11.4
3 | c1cc(-c2ccc3c(c2)C2(CCNCC2)CC3)ccn1 | 50.6
4 | O=C([C@H]1COC[C@H]2CN(CC3CC3)C[C@H]21)N1CCOCC1 | -2.68
5 | Cn1c(C(=O)N2CCOCC2)nc2c1CCN(c1ncccn1)C2 | -1.44
6 | CCOCC1COCCC12CCN(C(=O)C1=CCCCC1)CC2 (stereo unspecified) | -4.56
7 | COc1cccc(CC(=O)N2CCc3ncnc(C)c3CC2)c1 | -5.98
8 | O=S1(=O)NCC2(CCN(c3ncc(F)cn3)CC2)COc2ccccc21 | -0.496
9 | CC1N(C)C(=O)COC12CCN(C(=O)CCc1ccccc1)CC2 (stereo unspecified) | 5.92
10 | O=C(Cc1cccc(F)c1)N1CCc2ncnc(N3CCCC3)c2CC1 | -1.93
11 | CC(C)n1cnc2c1C(C(=O)N1CCCC1)N(S(C)(=O)=O)CC2 (stereo unspecified) | -0.195
12 | Cc1ccc(CNC(=O)C2c3c(ncn3C(C)C)CCN2S(C)(=O)=O)o1 (stereo unspecified) | -0.242
13 | CN1CCCN(C(=O)c2nc3c(n2C)CCN(c2ncccn2)C3)CC1 | 22.6
14 | CCOCC1C[C@@H]2OCCN(C(=O)c3ccc[nH]3)[C@H]2C1 (stereo partly specified) | -6.8
15 | O=C(NCC1CC1)[C@H]1C[C@@H]2CN(C(=O)NCC3CCCCC3)C[C@H]1O2 | 30.6
16 | O=C(c1ccc[nH]1)N1CCO[C@H]2CC(COCc3ccccn3)C[C@@H]21 (stereo partly specified) | 2.76
17 | CCN(C)C(=O)c1cc(-c2cn(C(C)C)cn2)n2ccccc12 | 26.7
18 | CCc1cnc(N2CCC3(CC2)CCN(c2cnn(C)c2)C3=O)nc1 | 31.2
19 | CN1C(=O)CC2(CCN(S(=O)(=O)N(C)C)CC2)c2ccccc21 | 33.2
20 | CN1C(=O)CC2(CCNCC2)c2ccccc21 | 6.26
21 | CN1C(=O)CC2(CCN(S(=O)(=O)c3cccs3)CC2)c2ccccc21 | 8.66
22 | CN1CCN(CC2CC2)C(=O)C12CCN(c1nccs1)CC2 | 7.83
23 | O=C(NC1CC1)c1nc2c(o1)CN(c1ncccn1)C2 | 1.1
24 | O=C(N1CCCC1)C12CC(CN1Cc1nccs1)C2 | -9.99
25 | CN(C)CCN1CCN(C)C2(CCN(c3nccs3)CC2)C1=O | -3.76
26 | O=C(NCC1CC1)C12CC(CN1Cc1nccs1)C2 | -9.03

Row | Structure (SMILES) | cytotoxicity at 70.5 h [%]
27 | O=C(c1cnccn1)N1C[C@@H](c2ccccc2)[C@@]2(CCNC2=O)C1 | -4.45
28 | Cc1ccc(CN2CC[C@@H](N(C)C(C)C)[C@@H]2Cc2ccccc2)o1 | 2.54
29 | Cc1nc(COCC2CNCc3nccn3C2)cs1 (stereo unspecified) | 7.13
30 | CC(=O)N1CC[C@@H]2CN(Cc3cccc(Cl)c3)S(=O)(=O)[C@@H]2CC1 | -1.91
31 | CCS(=O)(=O)N1CCOC2(CCCN(c3cccc(C#N)c3)C2)C1 (stereo unspecified) | -5.28
32 | Cn1cc(C(=O)N[C@H]2CN(S(C)(=O)=O)[C@@H]3CCCO[C@H]23)cn1 | -9.45
33 | CCOCC1CN(C(=O)c2ccco2)Cc2nn(C)cc21 (stereo unspecified) | -9.75
34 | CCOCC1CN(C(=O)c2ccsc2)Cc2nn(C)cc21 (stereo unspecified) | -8.31
35 | O=C(C1=CCCC1)N1C[C@H](OCc2cccnc2)[C@H]2OCCC[C@H]21 | -9.34
36 | O=C(NCc1cccnc1)C1=NOC2(CCCN(CCO)C2)C1 (stereo unspecified) | -10.7
37 | COCCNC(=O)[C@H]1CC[C@@H]2[C@@H](CCN2S(C)(=O)=O)O1 | 11.5
38 | O=C([C@H]1CCCO1)N1CCC2(CC1)CNCc1ccccc12 | 8.83
39 | O=C([C@@H]1CSCN1)N1CCC2(CC1)CNCc1ccccc12 | 3.6
40 | c1ccc(-c2cnc3n2CCNC32CCNCC2)cc1 | 43.5
41 | CN(C)CCNC(=O)[C@H]1C[C@@H]2CN(C(=O)NC3CCCC3)C[C@H]1O2 | 5.4
42 | CN(C)Cc1cnc2n1CCN(C(=O)Cc1ccsc1)CC2 | 8.26
43 | CC1N(C)C(=O)COC12CCN(Cc1ccsc1)CC2 (stereo unspecified) | 4.85
44 | COCCN1CCOCC12CCN(c1ccc(C#N)cc1)CC2 | -0.11
45 | O=S1(=O)NCC2(CCNCC2)COc2ccccc21 | -2.63
46 | CN(C)Cc1cnc2n1CCN(C(=O)NCc1ccccc1)CC2 | 4.32
47 | CN(C)Cc1cnc2n1CCN(C(=O)Cc1cccc(F)c1)CC2 | 4.88
48 | Cc1nc(CN2CCOCC23CCN(c2ccc(C#N)cc2)CC3)cs1 | -2.38
49 | CN1CCOCC12CCN(c1ccc(C#N)cc1)CC2 | -5.69
50 | CCN1CCOCC12CCN(c1ccc(C#N)cc1)CC2 | -6.86
51 | Cc1ccc(OCC(=O)N2C[C@@H]3CN(C)CCO[C@@H]3C2)cc1 | -7.41
52 | COCCN1CCN(c2ccc(C)nn2)Cc2cccnc21 | -7.28

Row | Structure (SMILES) | cytotoxicity at 70.5 h [%]
53 | O=C(NC1CC2(CCN(CCO)CC2)c2ccccc21)c1ccsc1 (stereo unspecified) | 8.71
54 | Cc1ccc(N2CCN(C)c3ncccc3C2)nn1 | -2.98
55 | COCC1CN(C(=O)COc2ccccc2C)Cc2ncn(C)c21 (stereo unspecified) | -4.45
56 | COCC1CN(S(=O)(=O)Cc2ccc(C)cc2)Cc2c1cnn2C (stereo unspecified) | -6.77
57 | O=C(NCCN1CCOCC1)c1ccnn1-c1ccc2ccccn12 | 3.81
58 | CC(C)n1cnc2c1C(C(=O)N(C)C)N(Cc1ccccc1)CC2 (stereo unspecified) | -3.01
59 | Cc1occc1C(=O)N1C[C@H]2CCCC(OCc3cccnc3)[C@H]2C1 (stereo partly specified) | -4.67
60 | Cc1occc1C(=O)N1CCO[C@H]2[C@H](OCc3cccnc3)CC[C@@H]21 | -8.78
61 | Cc1ccc(CN2CC[C@H]3O[C@@H](C(=O)N4CCCO4)CC[C@H]32)s1 | -4
62 | O=C(NCc1cccnc1)C1=NOC2(CCN(C(=O)N3CCCC3)C2)C1 (stereo unspecified) | -9.94
63 | CCS(=O)(=O)N1CCOC2(CCCN(c3cnccn3)C2)C1 (stereo unspecified) | -6.84
64 | O=C(c1cnccn1)N1CCO[C@H]2[C@H](OCc3cccnc3)CC[C@@H]21 | -6.93
65 | Cn1ccnc1C(=O)N[C@@H]1CN(Cc2cccs2)[C@@H]2CCCO[C@@H]21 | -14.1
66 | COCCN1CCN(C(=O)NC2CC2)Cc2ccc(C)nc21 | -12.1
67 | Cc1noc(C)c1CN1CC[C@H]2OCC[C@@H](C(=O)NCC3CC3)[C@H]2C1 | -8.02
68 | O=C([C@H]1CC[C@@H]2[C@@H](CCN2Cc2nccs2)O1)N1CCCCO1 | -5.06
69 | Cn1cc(C(=O)N[C@@H]2CN(CC3CCOCC3)[C@@H]3CCCO[C@@H]32)cn1 | -7.22
70 | Cc1ccc(CN2C[C@@H]3CN(CC4CCOCC4)CCO[C@@H]3C2)s1 | 8.99
71 | CCc1cnc(N2C[C@H](OCc3csc(C)n3)[C@H]3COC[C@H]32)nc1 | 2.07
72 | CCN(C)c1ncc2c(c1C(=O)O)CCN(C1CCOC1)C2 (stereo unspecified) | 0.989
73 | Cn1cc(CN2C[C@@H](NC(=O)c3cscn3)[C@H]3OCCC[C@H]32)cn1 | -8.57
74 | c1cnc(N2CCCC3(CN(CC4CCOCC4)CCO3)C2)cn1 (stereo unspecified) | -3.73
75 | Cn1cc(C(=O)N[C@@H]2CN(Cc3cccnc3)[C@@H]3CCCO[C@@H]32)cn1 | -4.29
76 | Cc1cccc(CO[C@@H]2C[C@H]3CN(c4ncccn4)CCN3C2)n1 | -1.58
